One test has as its system unc-54 RNA. The experiment in a line: Real time quantitative PCR, unc-54. In kind it is in vivo, Caenorhabditis elegans. The conditions noted are these: 50 μM ThT, 3, 6 and 12 days of treatment. Here is the method: Twelve single adults from control or 50 μM ThT populations were picked after 3, 6 and 12 days of treatment into 5 μl of distilled water and flash frozen until extraction. Individual worms were extracted using the RNeasy Micro Kit, TissueLyser and QIAcube (Qiagen). Using the manufacturer's standard Animal Tissue protocol, each sample was homogenized in buffer RLT/Bme (Qiagen) on the TissueLyser (6 min total at 20 Hz). Samples, reagents and columns were then loaded into the QIAcube robot, and processed using the “RNeasy Micro—Animal tissues and cells—DNase digest” program. Each sample was then eluted in 14 μl of Nuclease-free water. cDNA templates for the Real Time PCR reactions were made using a combination of Message Sensor RT kit (Ambion's) and TaqMan PreAmp Master Mix (Applied Biosystems). The entire worm sample was added to the RT reaction and reversed transcribed at 50° C. for 20 min, using Message Sensor's “Two Step RT-PCR Protocol” (sample RT's were randomized). Then 2.5 μl of the cDNA sample was pre-amplified with a “4×Multiplex Primer Mix” for 14 cycles using TaqMan PreAmp master mix and protocol (ABI). Two modifications were made to ABI's protocol: 1. the reaction volume was reduced to 10 μl and 2. after pre-amplification, each cDNA sample was diluted 1:5 with 1XTE Buffer (Promega). cDNA samples were stored at −20° C. until needed. […]

The test system of a further test is ZZ26 unc-63(x26)I. The conditions noted are these: 50 μM levamisole, after 3 days of treatment. Here is the method:
Scoring for paralysis was initiated 2 and 8 days after temperature upshift for CL4176 and AM140, respectively. […] For sensitivity to EtOH or levamisole resistance, CW152 gas-1 (fc21) X and ZZ26 unc-63(x26)I worms were picked into 0.4 M EtOH or 50 μM levamisole, respectively, equilibrated for 5 min, and scored for paralysis as described above. Treated and untreated worms were compared with an unpaired t-test (implemented in Prism 4, Graphpad™ Software, Inc., San Diego, Calif., USA).

The test system of test [1] is aggregation-prone soluble oligomeric protein (A11 antibody) in CL4176. The experiment in a line: A11 immunolocalization of soluble oligomeric protein, CL4176. It is filed as in vivo, Caenorhabditis elegans. The conditions noted are these: CL4176, 50 μM ThT. As for the experimental part:
(§1) For fluorescent microscopy, TJ356 zIs356 IV [daf-16::daf-16-gfp+rol-6] or CF2189 Is001(skn-1::gfp+rol-6) were paralyzed with 1 mM levamisole mounted on 1% agarose pads and imaged using Olympus BX51 (60× objective) and HCImage software (Hamamatsu). For immunofluorescence, N2, […], CB1157 unc-54(e1157) or CL4176 dvIs27 [myo-3::Aβ(3 to 42)-let 3′UTR(pAF29); pRF4 (rol-6(su1006))] worms were treated for 24-36 h with or without 50 μM ThT at 25° C. After this period the worms were collected, rinsed, and fixed in 4% paraformaldehyde overnight. […] Paramyosin and perlecans were detected with primary monoclonal antibodies 5-23 and MH3 (developed by Henry Epstein and Robert H. Waterston and obtained from the Developmental Studies Hybridoma Bank developed under the auspices of the NICHD and maintained by The University of Iowa, Department of Biology, Iowa City, Iowa 52242) and AlexaFluor 633 goat anti-mouse (Molecular Probes) as secondary antibody. Soluble oligomers and Aβ peptide were detected with anti polyclonal All (Invitrogen) and 6E10 monoclonal (Covance) primary antibodies, respectively, with AlexaFluor 568 goat anti-rabbit and AlexaFluor 488 goat anti-mouse (Molecular Probes) as secondary antibodies. Images were processed and quantified by using Image Analyst MK II (Novato, Calif.).

For a further test, the system named is CW152 gas-1(fc21) X. The experiment in a line: Ethanol sensitivity of gas-1 ts mutant. In kind it is in vivo, Caenorhabditis elegans. The conditions noted are these: 0.4 M EtOH, after 3 days of treatment.
The next test has as its system DA465 [eat-2(ad465)II]. The experiment in a line: Lifespan assay, eat-2 mutant. In kind it is in vivo, Caenorhabditis elegans. The conditions noted are these: 50 μM ThT. As for the experimental part: Lifespan assays were performed as described previously. (McColl, G. et al. Pharmacogenetic analysis of lithium-induced delayed aging in Caenorhabditis elegans. J Biol Chem 283, 350-357 (2008). Briefly, the nematode growth media (NGM) plates were prepared under sterile conditions. 100 μL of concentrated stocks of each of the compounds used in this study were added onto a previously prepared NGM small plate (3 mL volume) immediately spread over the surface of the plate. The final concentrations quoted in the text assume an even distribution of compound throughout the 3 ml plate. The plates were then placed in a laminar flow hood at room temperature for 30 min and then 60 μL of a concentrated suspension of E. coli OP50 was spotted to form a circular lawn on the center of each plate. Thirty late L4 larvae growing at 20° C. were transferred to fresh NGM plates with FUdR (75 μM) in presence or absence of the specified compounds and incubated at 20° C. The first day of adulthood is Day 3 in survival curves. There was between-experiment variation in the magnitude of the lifespan extension observed with ThT which appeared to correlate with different suppliers and batches. ThT concentration should be optimized depending on batch and purity and stability of the compound. […]
Animals were scored as alive, dead or lost every other day. […]

Test [2] has as its system UNC-52 (perlecan) in HE250. Description: Perlecan immunolocalization. It is filed as in vivo, Caenorhabditis elegans. As to conditions: HE250, 50 μM ThT, 24 h at 25° C. As for the experimental part:
as §1

From US20110081428A1, “Use of thioflavin-like compounds to increase life span and/or health span” (priority 2009, published 2011) come the findings set out here.

Molecules are shown by their SMILES.

In the case of `Cc1ccc2c(c1)sc(-c1ccc(N(C)C)cc1)[n+]2C.[Cl-]` [ThT, 4-(3,6-dimethyl-1,3-benzothiazol-3-ium-2-yl)-N,N-dimethylaniline chloride], the “unc-54 RNA levels” value in the test on unc-54 RNA is “increases unc-54 RNA levels after 3, but not at 6 or 12 days of treatment”. The levamisole resistance result in the test with ZZ26 unc-63(x26)I was “increases levimisole resistance”. For the same compound, the A11-positive oligomeric material entry in test [1] is “significantly decreased”. Moreover, the ethanol sensitivity entry with CW152 gas-1(fc21) X is recorded as “decreases the ethanol sensitivity”. The “lifespan of eat-2 mutant (genetic DR model)” value in the test on DA465 [eat-2(ad465)II] is listed as “increased the lifespan”. In addition, the perlecan organization result in test [2] was “restored perlecan organization”.
